# Test results reported in US9139615B2, “High-affinity, dimeric inhibitors of PSD-95 as efficient neuroprotectants against ischemic brain damage and for treatment of pain” (University of Copenhagen, priority 2011, dated 2015).
# “And” between values parts separate entries of the source, which are not always exact repeats. Identical values can stand only once. “Also recorded” adds a separate entry of the source. Where a SMILES comes first, the peptide text is derived from it. The star is where a group is joined. 5FAM = O=C1OC2(c3ccc(O)cc3Oc3cc(O)ccc32)c2ccc(C(=O)*)cc21
# What was measured:
# [1] = Spinal cord detection of fluorescent PSD-95 inhibitors; format: in vivo, mice; settings: 30 mg/kg i.p., 30 min after injection
# Method: To investigate if AB143 and AB145 are able to enter spinal cord tissue, they were administered to the mice by intraperitoneal injection (30 mg/kg). The drug-treated mice were decapitated 30 min after injection, and the spinal cord was carefully dissected out, to which 5% trichloroacetic acid (TCA) (300 μL per 0.1 g tissue) was added and the tissue homogenized with an ultrasonic homogenizer (on ice). The homogenated tissue was vortexed and centrifuged for 10 min (20000 g at 4° C.). The supernatant was transferred to a test tube and evaporated, and the residue was reconstituted in water and its fluoresence intensity was determined by using a fluorescence plate reader (excitation/emission:470/525 nm). For quantification of the compounds, a standard curve was prepared by spiking a known amount of AB143 and AB145 into spinal cord tissue from control mice prior to homogenization, followed by work-up and analysis similar to the drug-treated mice.
# [2] = Blood-brain barrier permeability of fluorescent analogues; format: in vivo, mice; settings: 5-FAM-labeled, 3 nmol/g i.v., 2 hours after injection, unmanipulated mice
# Method: VI.ii. Blood-brain Barrier Permeability. […] After injection of the compounds, the mice are perfused with paraformaldehyde and the brains are carefully removed, post-fixed in paraformaldehyde, processed into coronal sections, and quantified for fluorescence (Example 8).
# The fluorescent ligands were injected intravenously (3 nmol/g) and the location of the ligands was detected by fluorescence microscopy of coronal brain slices (n=8) mice, was evaluated 2 hours after injection. Two sections of the brain, prior to and two after the anterior commissure (n=5), were selected for BBB permeability analysis. The anterior commissure (Bregma: −0.3) was used as a fix point in the brain in order to analyse anatomically identical brain sections. The intensity of the 5-FAM fluorophore was measured semi-quantitatively using a fluorescence microscopy system (Olympus System Microscope model BX-51, Denmark) with a 10× objective (Olympus 10×/0.15 UPlanApo) connected to a high-resolution microscope digital camera (Olympus model DP70), which transferred images to an image-capturing software (Image Pro Plus software). All images were taken using the same microscope settings and with constant camera exposure time. Intensities were quantified using the ImageJ software.
# 5-FAM-labeled derivative of Tat-NR2B9c is designated MS23. After injection of the compounds, the mice are perfused with paraformaldehyde and the brains are carefully removed, post-fixed in paraformaldehyde, processed into coronal sections, and quantified for fluorescence.
# C57BL/6 mice with 6 hour post-surgical survival time were euthanized by cervical dislocation. C57BL/6 mice with 48 hour post-surgical survival were anesthetized with an overdosed of pentobarbital (the pharmacy of the Faculty of Life Sciences, University of Copenhagen, Denmark) in order to collect blood and tissue samples. All brains were carefully removed, frozen in gaseous CO2 and cut into 6 series of 30 μm coronal cryostat sections and stored at −80° C. until further use. C57BL/6J mice used to investigate the blood-brain barrier (BBB) permeability of AB143, AB145, AB148, and MS23 were deeply anesthetized and perfused through the left ventricle, using 10 ml chilled Soerensens phosphate buffer (SB) ([…], 125 mM Na2HPO4, pH 7.4) followed by 20 mL SB containing 4% paraformaldehyde (PFA). The brains were carefully removed and post-fixed in 4% PFA for 1 hour followed by immersion in SB containing 20% sucrose over night. The brains were frozen on gaseous CO2 and processed into 16 μm coronal cryostat sections.
# [3] = Human blood plasma stability assay; format: in vitro ADME
# Method: Ligands (dimeric PSD-95 inhibitors) for the PDZ domain of PSD-95 were dissolved in human blood plasma (270 μL; 3H Biomedical, Sweden, cat no 1300-1-P50) to a concentration of 0.25 mM (30 μL, of 2.5 mM) and incubated at 37° C. Aliquots (30 μL) were removed at various time intervals (e.g. 0, 5, 10, 20, 40, 80, 160, 320, 960, 1280, 2550, 4560 and 7240 min) and quenched with 60 μL, trichloroacetic acid (aq., 5%). The aliquots were vortexed, and incubated 15 min, at 4° C. prior to centrifugation at 18,000 g for 2 min. The supernatants were analyzed by analytical RP-HPLC (UV218) to quantify compound relative to time zero, and also evaluated qualitatively by ESI-LC/MS in order to identify the compound (m/z) in the sample. Procaine (positive control) and procainamide (negative control) were investigated at 50 μM to validate the procedure. Ligand recoveries following the precipitation procedure were between 85-95%.
# [4] = test system: pMCAO model of ischemic stroke; experiment: Rotarod performance test after pMCAO; format: in vivo, mice; settings: 48 hours after pMCAO
# Method: The rotarod (LE 8200, Panlab) is well suited to evaluate motor activity in rodents, experimental compound effects on central nervous system damage, or disease effects on motor coordination, assessed by the time during which the animal remains walking in a rotating drum. The rotation of the rotarod is motor drived and accelerates from 0 to 40 rounds per min (rpm) over a time period of 5 min, at which time all mice have fallen off the rod. All mice were tested in 4 repeating trials with a 20 min interval (resting time). Prior to surgery mice were pre-trained to stay on the rod for 30 seconds, at 4 rpm.
# [5] = test system: pMCAO model of ischemic stroke; experiment: Grip strength after pMCAO; format: in vivo, mice; settings: 48 hours after pMCAO, 3 nmol/g i.v.
# Method: The grip strength meter (BIO-GT-3, BIOSEB) allows the study of neuromuscular functions in mice by determining the maximum force that is required to make the mouse release its grip. The grip strength in individual paws was used to measure the severity of the pMCAO-induced asymmetry. The mouse is allowed to grasp a metal grid and then pulled backwards in the horizontal plane. The force applied to the grid is recorded as the peak tension. The strength of individual front paws and the total grip strength (both paws simultaneously) were measured before (baseline) and after pMCAO. Each mouse is tested in 5 sequential trials and the highest grip strength is recorded as the best score.
# [6] = Physiological status of pMCAO mice (blood values, body weight, temperature, survival); format: in vivo; settings: mouse, in vivo
# Method: The physiological status of the mice was carefully monitored prior to and during pMCAO surgery in order to exclude the observed effects of treatment with dimeric PSD-95 inhibitors being due to secondary conditions (e.g. disease-related) resulting from the experimental procedure.
# 9.10 Body weight monitoring: The body weight of each mouse was registered during pre-training, before surgery, and at 24 and 48 hours after surgery and no differences were seen between the treatment groups (FIG. 13).
# 9.11 Temperature monitoring: The rectal temperature of the mouse was continuously measured using a thermocoupled probe connected to a Model Bat 12 unit (Physitemp). The temperature was measured prior to and 30 min after pMCAO in addition to 30 min and 2.5 hours after i.v. injection, i.e. 1 and 3 hours after pMCAO.
# 9.12 Blood gas analysis: One samples of venous blood was taken for blood gas analysis of PO2/PCO2 electrolytes, glucose, lactate, and hematocrit, 30 min after compound administration (1 hour after pMCAO). A capillary heparin coated tube was inserted along the inner corner of eye and turned until it penetrated the conjunctiva. A sample of blood (150 μl) was collected and stored on ice until gas analysis using the GEM Premier 300 blood gas instrument (Instrumentation Laboratory) Quality controls (QC ContrlIL9) were purchased from IL Sensor Systems. Also, no differences were detected in blood gas parameters (PO2/PCO2, pH, electrolytes, glu/lac), which were similar between the groups and within normal range, when compared to unmanipulated control mice (Table 4).
structure (smiles),measurement,setting,value
"CC[C@H](C)[C@H](NC(=O)CCOCCOCCN(CCOCCOCCC(=O)N[C@H](C(=O)N[C@@H](CCC(=O)O)C(=O)N[C@H](C(=O)N[C@@H](CC(=O)O)C(=O)N[C@H](C(=O)O)C(C)C)[C@@H](C)O)[C@@H](C)CC)C(=O)[C@H](CCCNC(=N)N)NC(=O)[C@H](CCCNC(=N)N)NC(=O)[C@H](CCCNC(=N)N)NC(=O)[C@H](CCC(N)=O)NC(=O)[C@H](CCCNC(=N)N)NC(=O)[C@H](CCCNC(=N)N)NC(=O)[C@H](CCCCN)NC(=O)[C@H](CCCCN)NC(=O)[C@H](CCCNC(=N)N)NC(=O)CNC(=O)[C@H](Cc1ccc(O)cc1)NC(=O)c1ccc2c(c1)C(=O)OC21c2ccc(O)cc2Oc2cc(O)ccc21)C(=O)N[C@@H](CCC(=O)O)C(=O)N[C@H](C(=O)N[C@@H](CC(=O)O)C(=O)N[C@H](C(=O)O)C(C)C)[C@@H](C)O [AB145, F-Tat-NPEG4(IETDV)2]",fluorescence in spinal cord tissue compared to saline-treated mice,[1],clear and distinct fluorescence increase
same,"concentration in spinal cord, Average ± SEM",[1]; mice,0.074 nmol/g and 0.074 ± 0.022 nmol/g
same,"concentration in spinal cord, individual samples",[1]; mice,0.035 nmol/g and 0.132 nmol/g and 0.108 nmol/g and 0.084 nmol/g and 0.012 nmol/g
same,"entry into brain, fluorescence microscopy of coronal brain slices",[2],enter the brain; also recorded: Detection
"CC[C@H](C)[C@H](NC(=O)CCOCCOCCN(CCOCCOCCC(=O)N[C@H](C(=O)N[C@@H](CCC(=O)O)C(=O)N[C@H](C(=O)N[C@@H](CC(=O)O)C(=O)N[C@H](C(=O)O)C(C)C)[C@@H](C)O)[C@@H](C)CC)C(=O)[C@@H](CCCNC(=N)N)NC(=O)[C@@H](CCCCN)NC(=O)[C@@H](CCCCN)NC(=O)[C@@H](CCCNC(=N)N)NC(=O)[C@@H](CCCNC(=N)N)NC(=O)[C@@H](CCC(N)=O)NC(=O)[C@@H](CCCNC(=N)N)NC(=O)[C@@H](CCCNC(=N)N)NC(=O)[C@H](N)CCCNC(=N)N)C(=O)N[C@@H](CCC(=O)O)C(=O)N[C@H](C(=O)N[C@@H](CC(=O)O)C(=O)N[C@H](C(=O)O)C(C)C)[C@@H](C)O [AB147, Retroinverso-D-Tat-NPEG4(IETDV)2]",degradation in human blood plasma,[3],No detectable degradation
same,total time spent on the rod,"[4]; 3 nmol/g i.v., four trials",92.6 ± 4.5 s
same,short term learning skill improvement on rotarod compared to saline,[4]; trials T1-T4,more pronounced short term learning skill improvement
same,grip strength asymmetry between right and left front paw,[5],no asymmetry and not
same,total grip strength (both paws) compared to baseline,[5],no significant change in total grip strength; also recorded: No difference compared to baseline
same,Hct,[6],41.3 ± 0.6%
same,[Ca2+],[6],1.31 ± 0.01 mmol/L
same,[K+],[6],5.1 ± 0.18 mmol/L
same,[Lactate],[6],0.90 ± 0.05 mmol/L
same,[Na+],[6],147 ± 0.5 mmol/L
same,pCO2,[6],104 ± 2.5 mmHg
same,pO2,[6],56.4 ± 2.9 mmHg
"CC[C@H](C)[C@H](N)C(=O)N[C@@H](CCC(=O)O)C(=O)N[C@H](C(=O)N[C@@H](CC(=O)O)C(=O)N[C@H](C(=O)O)C(C)C)[C@@H](C)O [IETDV, reference compound]",half-life at 0.25 mM,"[3]; human, human blood plasma, 0.25 mM, 37° C., in vitro, read-out: half-life (T1/2) in human blood plasma",37 ± 6 min
"CC[C@H](C)[C@H](NC(=O)[C@H](CO)NC(=O)[C@H](CO)NC(=O)[C@H](CC(C)C)NC(=O)[C@H](CCCCN)NC(=O)[C@H](CCCNC(=N)N)NC(=O)[C@H](CCCNC(=N)N)NC(=O)[C@H](CCCNC(=N)N)NC(=O)[C@H](CCC(N)=O)NC(=O)[C@H](CCCNC(=N)N)NC(=O)[C@H](CCCNC(=N)N)NC(=O)[C@H](CCCCN)NC(=O)[C@H](CCCCN)NC(=O)[C@H](CCCNC(=N)N)NC(=O)CNC(=O)[C@H](Cc1ccc(O)cc1)NC(=O)c1ccc2c(c1)C(=O)OC21c2ccc(O)cc2Oc2cc(O)ccc21)C(=O)N[C@@H](CCC(=O)O)C(=O)N[C@@H](CO)C(=O)N[C@@H](CC(=O)O)C(=O)N[C@H](C(=O)O)C(C)C [MS23, F-Tat-NR2B9c, reference compound] (5FAM-YGRKKRRQRRRKLSSIESDV-OH)","entry into brain, fluorescence microscopy of coronal brain slices",[2],Detection
